Results: patent US10477864B2, “Microbiocidal quinoline (thio)carboxamide derivatives” (priority 2016, dated 2019)

What was measured:
[1] = tested on: Botryotinia fuckeliana (Botrytis cinerea); assay: Botryotinia fuckeliana (Botrytis cinerea) / liquid culture (gray mould); type: cell-based; conditions: 72 h, read-out: control of Botryotinia fuckeliana
[2] = tested on: Magnaporthe grisea (Pyricularia oryzae); assay: microbe, parasite or virus in culture; type: cell-based; conditions: 72 h, read-out: control of Magnaporthe grisea
[3] = tested on: Fusarium culmorum; assay: microbe, parasite or virus in culture; type: cell-based; conditions: read-out: control of Fusarium culmorum
[4] = tested on: Fusarium culmorum; assay: whole plant or invertebrate; type: in vivo; conditions: in Triticum aestivum, read-out: control of Fusarium culmorum
[5] = tested on: Mycosphaerella graminicola (Septoria tritici); assay: Mycosphaerella graminicola (Septoria tritici) / liquid culture (Septoria blotch); type: cell-based; conditions: Zymoseptoria tritici; read-out: control of Mycosphaerella graminicola
[6] = tested on: Glomerella lagenarium (Colletotrichum lagenarium); assay: Glomerella lagenarium (Colletotrichum lagenarium) / liquid culture (anthracnose); type: cell-based; conditions: Colletotrichum orbiculare; read-out: control of Glomerella lagenarium
[7] = tested on: Monographella nivalis (Microdochium nivale); assay: Monographella nivalis (Microdochium nivale) / liquid culture (foot rot cereals); type: cell-based; conditions: 96 h, read-out: control of Monographella nivalis
[8] = tested on: Gaeumannomyces graminis; assay: Gaeumannomyces graminis / liquid culture (take-all of cereals); type: cell-based; conditions: read-out: control of Gaeumannomyces graminis
[9] = tested on: Sclerotinia sclerotiorum; assay: Sclerotinia sclerotiorum / liquid culture (cottony rot); conditions: 72 h, read-out: control of Sclerotinia sclerotiorum
Procedure: Sclerotinia sclerotiorum/Liquid Culture (Cottony Rot)
Mycelia fragments of a newly grown liquid culture of the fungus are directly mixed into nutrient broth (Vogels broth). After placing a (DMSO) solution of test compound into a microtiter plate (96-well format) the nutrient broth containing the fungal material is added. The test plates are incubated at 24° C. and the inhibition of growth is determined photometrically 3-4 days after application.

Cc1cccc2cc(C(=O)NC(C)(Cc3ccccc3)CC(F)(F)F)cnc12 (centres unmarked) [Compound E-61, N-(1-benzyl-3,3,3-trifluoro-1-methyl-propyl)-8-methyl-quinoline-3-carboxamide]
≥ 80%: inhibition of growth at 200 ppm [1] | inhibition of growth at 200 ppm [2] | inhibition of growth at 200 ppm [3] | pest or weed control at 200 ppm [4] | inhibition of growth at 200 ppm [5] | inhibition of growth at 200 ppm [6] | inhibition of growth at 200 ppm [7]
120 to 123 °C: melting point

CC(C)C[C@@](C)(Cc1ccccc1)NC(=O)c1cnc2c(F)cccc2c1 [Compound F-2, N-[(1S)-1-benzyl-1,3-dimethyl-butyl]-8-fluoro-quinoline-3-carboxamide]
≥ 80%: inhibition of growth at 200 ppm [1] | inhibition of growth at 200 ppm [8] | inhibition of growth at 20 ppm [9] | inhibition of growth at 200 ppm [3] | pest or weed control at 200 ppm [4] | inhibition of growth at 200 ppm [5] | inhibition of growth at 200 ppm [6] | inhibition of growth at 200 ppm [7]

C=C(C)CC(C)(Cc1ccccc1)NC(=O)c1cnc2c(F)c(F)ccc2c1 (centres unmarked) [Compound E-55, N-(1-benzyl-1,3-dimethyl-but-3-enyl)-7,8-difluoro-quinoline-3-carboxamide]
≥ 80%: inhibition of growth at 200 ppm [1] | inhibition of growth at 200 ppm [2] | inhibition of growth at 200 ppm [3] | pest or weed control at 200 ppm [4] | inhibition of growth at 200 ppm [5] | inhibition of growth at 200 ppm [6] | inhibition of growth at 200 ppm [7]
94 to 96 °C: melting point

CC(C)(Cc1ccccc1F)NC(=O)c1cnc2ccccc2c1 [Compound E-2, N-[2-(2-fluorophenyl)-1,1-dimethyl-ethyl]quinoline-3-carboxamide]
≥ 80%: inhibition of growth at 200 ppm [1] | inhibition of growth at 200 ppm [8] | inhibition of growth at 200 ppm [3] | inhibition of growth at 200 ppm [5] | inhibition of growth at 200 ppm [6] | inhibition of growth at 200 ppm [7]

CC(C)C[C@H](Cc1ccccc1)NC(=O)c1cnc2c(F)cccc2c1 [Compound F-3, N-[(1R)-1-benzyl-3-methyl-butyl]-8-fluoro-quinoline-3-carboxamide]
≥ 80%: inhibition of growth at 200 ppm [1] | inhibition of growth at 200 ppm [8] | inhibition of growth at 20 ppm [9] | inhibition of growth at 200 ppm [3] | pest or weed control at 200 ppm [4] | inhibition of growth at 200 ppm [5] | inhibition of growth at 200 ppm [6]

CC(C)(O)CC(C)(Cc1ccccc1)NC(=O)c1cnc2c(F)cccc2c1 (centres unmarked) [Compound E-58, N-(1-benzyl-3-hydroxy-1,3-dimethyl-butyl)-8-fluoro-quinoline-3-carboxamide]
≥ 80%: inhibition of growth at 200 ppm [1] | inhibition of growth at 200 ppm [2] | inhibition of growth at 200 ppm [3] | pest or weed control at 200 ppm [4] | inhibition of growth at 200 ppm [5] | inhibition of growth at 200 ppm [6] | inhibition of growth at 200 ppm [7]

CC(C)CC(C)(Cc1ccccc1)NC(=O)c1cnc2c(F)cccc2c1 (centres unmarked) [Compound E-6, N-(1-benzyl-1,3-dimethyl-butyl)-8-fluoro-quinoline-3-carboxamide]
≥ 80%: inhibition of growth at 200 ppm [1] | inhibition of growth at 200 ppm [2] | inhibition of growth at 200 ppm [8] | inhibition of growth at 20 ppm [9] | inhibition of growth at 200 ppm [3] | pest or weed control at 200 ppm [4] | inhibition of growth at 200 ppm [5] | inhibition of growth at 200 ppm [6] | inhibition of growth at 200 ppm [7]
110 to 112 °C: melting point

CC(F)(F)C[C@@](C)(Cc1ccccc1)NC(=O)c1cnc2ccccc2c1 [Compound F-26, N-[(1R)-1-benzyl-3,3-difluoro-1-methyl-butyl]quinoline-3-carboxamide]
≥ 80%: inhibition of growth at 200 ppm [1] | inhibition of growth at 200 ppm [3] | pest or weed control at 200 ppm [4] | inhibition of growth at 200 ppm [5] | inhibition of growth at 200 ppm [6] | inhibition of growth at 200 ppm [7]

CC(C)C[C@@](C)(Cc1ccccc1)NC(=O)c1cnc2ccccc2c1 [Compound F-6, N-[(1S)-1-benzyl-1,3-dimethyl-butyl]quinoline-3-carboxamide]
≥ 80%: inhibition of growth at 200 ppm [1] | inhibition of growth at 200 ppm [8] | inhibition of growth at 200 ppm [3] | inhibition of growth at 200 ppm [5] | inhibition of growth at 200 ppm [6]

CC(C)(F)C[C@](C)(Cc1ccccc1)NC(=O)c1cnc2c(F)cccc2c1 [Compound F-24, N-[(1S)-1-benzyl-3-fluoro-1,3-dimethyl-butyl]-8-fluoro-quinoline-3-carboxamide]
≥ 80%: inhibition of growth at 200 ppm [1] | inhibition of growth at 200 ppm [3] | pest or weed control at 200 ppm [4] | inhibition of growth at 200 ppm [5] | inhibition of growth at 200 ppm [6] | inhibition of growth at 200 ppm [7]
